Results published in patent US20140249135A1, “PIM KINASE INHIBITORS AND METHODS OF THEIR USE” (NOVARTIS AG, priority 2007, published 2014).

Legend:
Type in all cases: biochemical
[1] = molecular target: Pim1 kinase (Homo sapiens, UniProt P11309); assay: Pim1 ATP depletion assay; conditions: Pim1 ATP depletion assay; read-out: PIM1 IC50;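 note: Luciferase-luciferin luminescence readout of residual ATP after PIM1 transfers phosphate to a peptide substrate, 40 µM ATP added, reaction run to roughly half ATP consumption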
[2] = molecular target: Pim3 kinase (Homo sapiens, UniProt Q86V86); assay: Pim3 ATP depletion assay; conditions: read-out: PIM3 IC50
[3] = molecular target: Pim2 kinase (Homo sapiens, UniProt Q9P1W9); assay: Pim2 ATP depletion assay; conditions: read-out: PIM2 IC50;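 note: Luciferase-based luminescent readout of ATP remaining after PIM2 phosphorylates a BAD peptide, final 5 nM enzyme, 4 µM ATP, 10 µM peptide, 2.5% DMSO, run to roughly half ATP consumption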

Measured: IC50

Sequence of Pim2 kinase (Q9P1W9 whole entry): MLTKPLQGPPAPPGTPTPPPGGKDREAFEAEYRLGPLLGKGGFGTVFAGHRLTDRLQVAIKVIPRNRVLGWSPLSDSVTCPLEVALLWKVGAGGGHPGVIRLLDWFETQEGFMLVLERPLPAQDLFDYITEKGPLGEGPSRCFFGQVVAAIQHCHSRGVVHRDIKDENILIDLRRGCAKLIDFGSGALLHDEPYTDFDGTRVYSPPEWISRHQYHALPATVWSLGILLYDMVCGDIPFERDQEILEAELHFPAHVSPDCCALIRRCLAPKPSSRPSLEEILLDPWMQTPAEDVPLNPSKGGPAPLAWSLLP
Sequence of Pim1 kinase (P11309 whole entry): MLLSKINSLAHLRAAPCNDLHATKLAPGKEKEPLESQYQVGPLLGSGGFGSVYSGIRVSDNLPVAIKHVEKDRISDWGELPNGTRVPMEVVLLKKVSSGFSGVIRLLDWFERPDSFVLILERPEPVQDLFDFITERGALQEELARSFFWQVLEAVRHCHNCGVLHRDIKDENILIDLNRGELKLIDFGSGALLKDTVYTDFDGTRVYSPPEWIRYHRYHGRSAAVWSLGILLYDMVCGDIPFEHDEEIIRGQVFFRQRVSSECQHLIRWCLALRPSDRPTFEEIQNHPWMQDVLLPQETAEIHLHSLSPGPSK

COc1cc(N)nc(-c2ccncc2NC(=O)c2nc(-c3c(F)cccc3F)ccc2N)c1 [Example 622, 3-Amino-6-(2,6-difluoro-phenyl)-pyridine-2-carboxylic acid (6-amino-4-methoxy-[2,4′]bipyridinyl-3′-yl)-amide]
< 1000 nM: all assays above

Cc1cc(-c2ccncc2NC(=O)c2nc(-c3c(F)cccc3F)ccc2N)cc(N)n1 [Example 623, 3-amino-N-(2′-amino-6′-methyl-4,4′-bipyridin-3-yl)-6-(2,6-difluorophenyl)pyridine-2-carboxamide]
< 1000 nM: all assays above

Cc1cc(-c2ccncc2NC(=O)c2nc(-c3ccccc3F)ccc2N)cc(N)n1 [Example 624, 3-amino-N-(2′-amino-6′-methyl-4,4′-bipyridin-3-yl)-6-(2-fluorophenyl)pyridine-2-carboxamide]
< 1000 nM: all assays above

Nc1cncc(-c2ccncc2NC(=O)c2nc(-c3ccccc3F)ccc2N)n1 [Example 625, 3-amino-N-[4-(6-amino-pyrazin-2-yl)pyridin-3-yl]-6-(2-fluorophenyl)pyridine-2-carboxamide]
< 1000 nM: all assays above

Cc1cc(-c2ccncc2NC(=O)c2nc(-c3ccccc3F)ccc2N)nc(N)n1 [Example 626, 3-amino-N-[4-(2-amino-6-methylpyrimidin-4-yl)-pyridin-3-yl]-6-(2-fluoro-phenyl)pyridine-2-carboxamide]
< 1000 nM: all assays above

Nc1cc(-c2ccncc2NC(=O)c2nc(-c3ccccc3F)ccc2N)nc(N)n1 [Example 627, 3-amino-N-[4-(2,6-diaminopyrimidin-4-yl)pyridin-3-yl]-6-(2-fluorophenyl)pyridine-2-carboxamide]
< 1000 nM: all assays above

Nc1nccc(-c2ccncc2NC(=O)c2nc(-c3c(F)cccc3F)ccc2N)n1 [Example 628, 3-amino-N-[4-(2-aminopyrimidin-4-yl)pyridin-3-yl]-6-(2,6-difluorophenyl)pyridine-2-carboxamide]
< 1000 nM: all assays above

Nc1ccc(-c2c(F)cccc2F)nc1C(=O)Nc1cnccc1-c1cccnc1N [Example 630, 3-amino-N-(2-amino-3,4′-bipyridin-3′-yl)-6-(2,6-difluorophenyl)pyridine-2-carboxamide]
< 1000 nM: all assays above

N[C@H]1CCCN(c2ccncc2NC(=O)c2cccc(-c3nccs3)n2)C1 [Example 631, N-{4-[(3S)-3-amino-piperidin-1-yl]pyridin-3-yl}-6-(1,3-thiazol-2-yl)pyridine-2-carboxamide]
< 1000 nM: all assays above

Nc1ccc(-c2nccs2)nc1C(=O)Nc1cnccc1N1CCC[C@H](N)C1 [Example 632, 3-amino-N-{4-[(3S)-3-aminopiperidin-1-yl]pyridin-3-yl}-6-(1,3-thiazol-2-yl)-pyridine-2-carboxamide]
< 1000 nM: all assays above

Nc1cc(-c2ccncc2NC(=O)c2nc(C3CCCCC3)ccc2N)nc(C(F)(F)F)n1 [Example 633, 3-Amino-6-cyclohexyl-pyridine-2-carboxylic acid [4-(6-amino-2-trifluoro-methyl-pyrimidin-4-yl)-pyridin-3-yl]-amide]
< 1000 nM: all assays above

CCC(CC)c1ccc(N)c(C(=O)Nc2cnccc2N2CCC[C@H](N)C2)n1 [Example 634, 3-Amino-6-(1-ethyl-propyl)-pyridine-2-carboxylic acid (3-amino-3,4,5,6-tetrahydro-2H-[1,4′]bipyridinyl-3′-yl)-amide]
< 1000 nM: all assays above

N[C@H]1CCCN(c2ccncc2NC(=O)c2cccc(C3CCCCC3)n2)C1 [Example 635, 6-Cyclohexyl-pyridine-2-carboxylic acid (3-amino-3,4,5,6-tetrahydro-2H-[1,4′]bipyridinyl-3′-yl)-amide]
< 1000 nM: all assays above

Cc1ccc(N)c(C(=O)Nc2cnccc2N2CCC[C@H](N)C2)n1 [Example 637, 3-amino-N-{4-[(3S)-3-aminopiperidin-1-yl]pyridin-3-yl}-6-methylpyridine-2-carboxamide]
< 1000 nM: all assays above

Nc1ccc(C2CC2)nc1C(=O)Nc1cnccc1N1CCC[C@H](N)C1 [Example 638, 3-amino-N-{4-[(3S)-3-aminopiperidin-1-yl]pyridin-3-yl}-6-cyclopropyl-pyridine-2-carboxamide]
< 1000 nM: all assays above

CCc1ccc(N)c(C(=O)Nc2cnccc2N2CCC[C@H](N)C2)n1 [Example 639, 3-amino-N-{4-[(3S)-3-aminopiperidin-1-yl]pyridin-3-yl}-6-ethylpyridine-2-carboxamide]
< 1000 nM: all assays above

Nc1cc(-c2ccncc2NC(=O)c2nc(-c3nccs3)ccc2N)cc(C(F)(F)F)n1 [Example 640, 3-amino-N-[2′-amino-6′-(trifluoromethyl)-4,4′-bipyridin-3-yl]-6-(1,3-thiazol-2-yl)pyridine-2-carboxamide]
< 1000 nM: all assays above

Cc1cc(-c2ccncc2NC(=O)c2nc(-c3nccs3)ccc2N)cc(N)n1 [Example 641, 3-amino-N-(2′-amino-6′-methyl-4,4′-bipyridin-3-yl)-6-(1,3-thiazol-2-yl)pyridine-2-carboxamide]
< 1000 nM: all assays above

Nc1cc(-c2ccncc2NC(=O)c2nc(-c3nccs3)ccc2N)nc(C(F)(F)F)n1 [Example 642, 3-amino-N-{4-[6-amino-2-(trifluoromethyl)pyrimidin-4-yl]pyridin-3-yl}-6-(1,3-thiazol-2-yl)pyridine-2-carboxamide]
< 1000 nM: all assays above

Cc1nc(N)cc(-c2ccncc2NC(=O)c2nc(-c3nccs3)ccc2N)n1 [Example 643, 3-amino-N-[4-(6-amino-2-methylpyrimidin-4-yl)pyridin-3-yl]-6-(1,3-thiazol-2-yl)pyridine-2-carboxamide]
< 1000 nM: all assays above

Nc1ccc(C23CC4CC(CC(C4)C2)C3)nc1C(=O)Nc1cnccc1N1CCC[C@H](N)C1 [Example 645, 6-Adamantan-1-yl-3-amino-pyridine-2-carboxylic acid (3-amino-3,4,5,6-tetrahydro-2H-[1,4′]bipyridinyl-3′-yl)-amide]
< 1000 nM: all assays above

Nc1cc(-c2ccncc2NC(=O)c2cccc(-c3nccs3)n2)nc(C(F)(F)F)n1 [Example 647, N-{4-[6-amino-2-(trifluoro-methyl)pyrimidin-4-yl]-pyridin-3-yl}-6-(1,3-thiazol-2-yl)pyridine-2-carboxamide]
< 1000 nM: all assays above

CC(C)NC(=O)c1ccc(F)c(-c2ccc(N)c(C(=O)Nc3cnccc3N3CCC[C@H](O)C3)n2)c1 [Example 651, 3-Amino-6-(2-fluoro-5-isopropylcarbamoyl-phenyl)-pyridine-2-carboxylic acid (3-hydroxy-3,4,5,6-tetrahydro-2H-[1,4′]bipyridinyl-3′-yl)-amide]
< 1000 nM: all assays above

CC(C)Oc1ccc(F)c(-c2ccc(N)c(C(=O)Nc3cnccc3N3CCC[C@H](O)C3)n2)c1F [Example 652, 3-Amino-6-(2,6-difluoro-3-isopropoxy-phenyl)-pyridine-2-carboxylic acid (3-hydroxy-3,4,5,6-tetrahydro-2H-[1,4′]bi-pyridinyl-3′-yl)-amide]
< 1000 nM: all assays above

Nc1ccc(-c2c(F)cccc2F)nc1C(=O)Nc1cnccc1N1CCC[C@H](O)C1 [Example 653, 3-Amino-6-(2,6-difluoro-phenyl)-pyridine-2-carboxylic acid (3-hydroxy-3,4,5,6-tetra-hydro-2H-[1,4′]bipyridinyl-3′-yl)-amide]
< 1000 nM: all assays above

Cc1cc(F)c(-c2ccc(N)c(C(=O)Nc3cnccc3N3CCCC(O)C3)n2)cc1Cl (stereo not drawn) [Example 654, 3-Amino-6-(5-chloro-2-fluoro-4-methyl-phenyl)-pyridine-2-carboxylic acid (3-hydroxy-3,4,5,6-tetrahydro-2H-[1,4′]bi-pyridinyl-3′-yl)-amide]
< 1000 nM: all assays above
